Like-named read-outs stand apart in the source and are kept apart here.
Columns and labels:
[1] = tested on: climbing behavior induced by apomorphine; assay: Neuroleptic activity: anti-climbing behavior test (suppression of climbing behavior induced by apomorphine); format: in vivo, mice (dd strain male); details: for ED50: Mus musculus, read-out: ED50 (50% effective dose), anti-climbing
[2] = Extrapyramidal activity: catalepsy inducing activity test; parameters: species or system mice (dd strain male); details: mouse, in vivo
Protocol: (§1) (2) Extrapyramidal activity
(§2) This activity was examined through the catalepsy inducing activity test as described in M. Fujiwara et al.: Folia Formacol., Japon: 85, 259-274 (1985). A designated amount of the test compound was orally administered to dd strain male mice (bodyweight, 22 to 27 g), and 1 and 4 hours after the administration, catalepsy induction was checked according to the Wirth et al method. Thus, each of the animals was forced to hang the forepows onto a metal pole of 2.5 mm in diameter horizontally situated at a height of 5 cm to maintain a strained state. The test was made with three replications, and the presence of at least one case where the animal was kept in the strained state over a period of 30 seconds was deemed to have caused catalepsy.

catalepsy = assay: as above; parameters: species or system mice (dd strain male); details: mouse, in vivo
Protocol: as §1, §2

[3] = 50 min, Oral administration, apomorphine 1.0 mg/kg s.c. after 50 minutes, mice
[4] = sc, Subcutaneous administration, apomorphine 1.0 mg/kg s.c., mice

O=C1[C@@H]2[C@@H]3CC[C@@H](C3)[C@@H]2C(=O)N1CCCCN1CCN(c2nsc3ccccc23)CC1 [Compound No. 5, N--[4-{4-(1,2-Benzisothiazol-3-yl)-1-piperazinyl}butyl]bicyclo[2.2.1]heptane-2,3-di-endo-carboximide] gave an ED50 [1, 3] of 2.6 mg/kg, an ED50 [1, 4] of 0.13 mg/kg and a TD50 ([2]; po) of 112 mg/kg.
For O=C(CCCN1CCC(O)(c2ccc(Cl)cc2)CC1)c1ccc(F)cc1 [Haloperidol, 4-[4-(4-chlorophenyl)-4-hydroxy-1-piperidinyl]-1-(4-fluorophenyl)-1-butanone], the ED50 ([1]; sc) was 0.21 mg/kg, the “neuroleptic activity (anti-climbing activity), in words” value ([1]; route not stated) was “significant neuroleptic activity” and the TD50 ([2]; oral administration, checked 1 and 4 hours after administration, mice, read-out: ED50, catalepsy induction) was under 5 mg/kg. The “extrapyramidal activity (catalepsy inducing activity), in words” value (catalepsy) was “considerably high level of extra-pyramidal activity”.
O=C1CC2(CCCC2)CC(=O)N1CCCCN1CCN(c2nsc3ccccc23)CC1 [Tiaspiron, 8-[4-(3-benzisothiazolyl)-1-piperazinylbutyl]-8-azaspiro[4,5]decane-7,9-dione] gave an ED50 [1, 3] of over 10 mg/kg and an ED50 [1, 4] of 0.23 mg/kg.
O=C1[C@@H]2[C@H]3CC[C@H](C3)[C@@H]2C(=O)N1CCCCN1CCN(c2nsc3ccccc23)CC1 [Compound No. 1, N-[4-{4-(1,2-Benzisothiazol-3-yl)-1-piperazinyl}butyl]bicyclo[2.2.1]heptane-2,3-di-exo-carboximide] showed an ED50 [1, 3] of 2 mg/kg, an ED50 [1, 4] of 0.15 mg/kg and a TD50 ([2]; po) of 68.1 mg/kg.
